The results in this text go back to BindingDB's records for doi:10.1016/j.bmcl.2007.01.077 (Yale University, 2007).

Test [1] concerns the target Signal transducer and activator of transcription 3 (Mus musculus, UniProt P42227). Kind of test: Electrophoretic Mobility Shift Assay (EMSA). To be noted: pH 7.8; 22 °C. The procedure: (§1) STAT proteins were expressed in Sf9 cells from a baculovirus encoding the recombinant protein. A nuclear extract of the Sf9 cells was incubated with 32P-labeled high affinity c-fos sis inducible element (hSIE) either alone or in the presence of inhibitor. After incubation, samples were electrophoresed on polyacrylamide gels. The gels were dried, exposed to a phosphorimager screen and scanned. IC50 values were derived from plots of spot intensity versus phosphopeptide concentration. The affinity of peptides to the SH2 domain is measured by the intensity of the radioactivity of the Stat-DNA complex band in the electrophoresis gel.
For orientation: A gel shift assay detects complexes by their altered migration in electrophoresis.

For test [2], the target named is T1, Signal transducer and activator of transcription 1-alpha/beta (Homo sapiens, UniProt P42224).
T1 sequence (P42224 whole entry): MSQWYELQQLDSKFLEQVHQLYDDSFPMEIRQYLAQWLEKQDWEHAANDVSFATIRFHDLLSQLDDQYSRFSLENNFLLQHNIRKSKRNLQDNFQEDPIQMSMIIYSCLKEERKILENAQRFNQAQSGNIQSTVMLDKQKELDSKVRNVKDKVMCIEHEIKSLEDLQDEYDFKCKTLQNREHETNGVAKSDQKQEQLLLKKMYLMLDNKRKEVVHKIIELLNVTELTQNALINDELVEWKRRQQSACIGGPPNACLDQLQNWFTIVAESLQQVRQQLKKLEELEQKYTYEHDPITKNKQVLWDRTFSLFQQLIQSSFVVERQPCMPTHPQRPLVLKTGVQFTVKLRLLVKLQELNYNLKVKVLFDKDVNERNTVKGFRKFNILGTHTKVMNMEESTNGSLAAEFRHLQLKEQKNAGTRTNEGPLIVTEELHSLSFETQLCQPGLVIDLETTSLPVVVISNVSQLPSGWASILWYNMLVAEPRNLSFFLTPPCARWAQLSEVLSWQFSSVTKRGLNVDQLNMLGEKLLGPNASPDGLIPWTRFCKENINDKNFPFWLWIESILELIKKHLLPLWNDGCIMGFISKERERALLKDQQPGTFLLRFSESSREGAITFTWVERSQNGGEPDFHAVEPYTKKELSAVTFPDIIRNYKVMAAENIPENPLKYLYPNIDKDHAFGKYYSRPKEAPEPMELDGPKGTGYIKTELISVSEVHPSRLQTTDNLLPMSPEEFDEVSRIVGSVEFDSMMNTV
Kind of test: Electrophoretic Mobility Shift Assay (EMSA). Particulars: pH 7.8; 22 °C. The procedure: as §1

Sequence of Signal transducer and activator of transcription 3 (P42227 whole entry, the tested form may be a part): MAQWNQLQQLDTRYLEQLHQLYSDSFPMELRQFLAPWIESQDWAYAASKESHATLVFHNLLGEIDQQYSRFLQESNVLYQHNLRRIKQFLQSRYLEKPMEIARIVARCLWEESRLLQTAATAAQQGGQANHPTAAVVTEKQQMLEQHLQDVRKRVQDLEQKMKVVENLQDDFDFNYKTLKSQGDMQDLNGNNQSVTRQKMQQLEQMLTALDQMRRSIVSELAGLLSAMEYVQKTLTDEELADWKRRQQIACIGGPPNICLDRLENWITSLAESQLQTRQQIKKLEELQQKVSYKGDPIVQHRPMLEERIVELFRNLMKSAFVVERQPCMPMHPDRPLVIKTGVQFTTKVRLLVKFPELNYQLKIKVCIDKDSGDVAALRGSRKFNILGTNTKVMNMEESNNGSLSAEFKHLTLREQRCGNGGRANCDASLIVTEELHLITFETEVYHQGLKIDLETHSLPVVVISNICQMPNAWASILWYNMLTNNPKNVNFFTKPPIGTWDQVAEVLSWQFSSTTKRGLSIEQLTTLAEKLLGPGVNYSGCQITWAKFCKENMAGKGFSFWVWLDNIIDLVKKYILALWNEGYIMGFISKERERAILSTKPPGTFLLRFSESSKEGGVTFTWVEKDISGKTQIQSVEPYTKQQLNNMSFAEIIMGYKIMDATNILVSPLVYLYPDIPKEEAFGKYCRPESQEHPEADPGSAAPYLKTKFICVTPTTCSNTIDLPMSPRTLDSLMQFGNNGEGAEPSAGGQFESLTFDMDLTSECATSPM

By IC50 is commonly meant the concentration that inhibits the measured activity by half. `CC(C)C[C@H](NC(=O)[C@H](Cc1ccc(OP(=O)(O)O)cc1)NC(=O)c1ccc(C#N)cc1)C(=O)NC(C)C` [4-[(2S)-2-[(4-cyanophenyl)formamido]-2-{[(1S)-3-methyl-1-(propan-2-ylcarbamoyl)butyl]carbamoyl}ethyl]phenoxyphosphonic acid]: the IC50 in test [1] was determined as 760 µM; in test [2], 58 µM.
